Drawing on patent publication US9580390B2, “Indazole compounds as kinase inhibitors and method of treating cancer with same” (University Health Network, priority 2011, dated 2017), this text covers GI50 and IC50 for 20 compounds.

Where two headings read alike, the source gives them in different places. Where only a bound is given, the exact number is not on record here.

Assay [1] has as its system colon cancer cells (HCT116). Nature of the assay: Cancer cell line growth inhibition (SRB assay). Type of assay: cell-based. The conditions noted are these: Homo sapiens, HCT-116, read-out: Cancer Cell Line GI50 Range HCT116. For orientation: The SRB assay estimates cell density from bound dye.
The subject of assay [2] is ovarian cancer cells (PA-1). Kind of assay: Cancer cell line growth inhibition (SRB assay). The class given is cell-based. The conditions noted are these: read-out: Cancer Cell Line GI50 Range PA-1.
The target of the next assay is T1, human TTK (Homo sapiens, UniProt P33981).
T1 construct: amino terminal GST fusion of full length human TTK; purchased Invitrogen
T1 sequence (P33981 1-857): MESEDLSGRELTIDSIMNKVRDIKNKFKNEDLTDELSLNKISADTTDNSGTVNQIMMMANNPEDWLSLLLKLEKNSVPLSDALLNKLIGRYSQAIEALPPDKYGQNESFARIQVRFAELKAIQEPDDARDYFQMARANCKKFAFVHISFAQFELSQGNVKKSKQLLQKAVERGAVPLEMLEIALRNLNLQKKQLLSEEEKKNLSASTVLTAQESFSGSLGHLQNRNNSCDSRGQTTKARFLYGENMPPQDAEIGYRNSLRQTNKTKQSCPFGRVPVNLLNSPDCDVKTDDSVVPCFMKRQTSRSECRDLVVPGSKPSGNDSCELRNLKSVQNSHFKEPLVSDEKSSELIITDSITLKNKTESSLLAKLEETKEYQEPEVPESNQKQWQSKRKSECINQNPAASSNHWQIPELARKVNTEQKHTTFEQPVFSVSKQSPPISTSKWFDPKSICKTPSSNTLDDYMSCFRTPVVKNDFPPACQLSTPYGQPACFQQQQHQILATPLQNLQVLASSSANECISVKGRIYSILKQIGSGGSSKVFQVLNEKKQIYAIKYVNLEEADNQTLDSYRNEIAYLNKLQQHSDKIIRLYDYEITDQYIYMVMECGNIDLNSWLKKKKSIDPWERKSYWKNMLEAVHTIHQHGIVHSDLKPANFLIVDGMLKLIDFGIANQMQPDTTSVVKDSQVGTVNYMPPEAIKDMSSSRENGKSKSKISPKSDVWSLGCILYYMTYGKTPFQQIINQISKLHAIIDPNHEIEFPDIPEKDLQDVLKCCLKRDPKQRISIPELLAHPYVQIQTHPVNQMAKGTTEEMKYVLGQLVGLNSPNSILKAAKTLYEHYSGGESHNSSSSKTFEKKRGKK
Kind of assay: TTK inhibition assay (indirect ELISA). The class given is biochemical. The conditions noted are these: read-out: TTK IC50 Range. In general terms: In an ELISA, binding on a coated surface is turned into a signal by an enzyme label.

The mark [3] stands for this setting: HCT116 colon cancer cells, SRB assay.
Where [4] appears, read: PA-1 ovarian cancer cells, SRB assay.

For orientation: GI50 means the concentration giving 50% growth inhibition. In general, IC50 refers to the point on the concentration scale where inhibition reaches its midpoint.

As for `O=C(NCC1(OC2CCCC2)CCCCC1)c1ccc2[nH]nc(-c3ccc(N4CCOCC4)cc3)c2c1` [Example A435, N-((1-(cyclopentyloxy)cyclohexyl)methyl)-3-(4-morpholinophenyl)-1H-indazole-5-carboxamide], the GI50 was more than 500 nM in assay [1] and more than 500 nM in assay [2] (Homo sapiens, PA-1). The IC50 at human TTK is less than 100 nM.
Regarding `C[C@H](O)C(=O)N1CCC(Oc2ccc(-c3n[nH]c4ccc(C(=O)N[C@H](c5ccccc5)C5CC5)cc34)cc2)CC1` [Example A377, N-((S)-cyclopropyl(phenyl)methyl)-3-(4-((1-((S)-2-hydroxypropanoyl)piperidin-4-yl)oxy)phenyl)-1H-indazole-5-carboxamide], the GI50 was in the range of 100 to 500 nM in assay [1] and 100 to 500 nM in assay [2] (Homo sapiens, PA-1). For the same compound, the IC50 at human TTK is less than 100 nM.
Turning to `CN1CCC(Oc2ccc(-c3n[nH]c4ccc(C(=O)NCC5(N6CCOCC6)CCC(F)(F)CC5)cc34)cc2)CC1` [Example A458, N-((4,4-difluoro-1-morpholinocyclohexyl)methyl)-3-(4-((1-methylpiperidin-4-yl)oxy)phenyl)-1H-indazole-5-carboxamide], the GI50 in assay [1] (setting [3]) and in assay [2] (setting [4]) was 100 to 500 nM in each case. Moreover, at human TTK, the IC50 is less than 100 nM.
As for `O=CN1C2CCC1CC(Oc1ccc(-c3n[nH]c4ccc(C(=O)N[C@@H](c5ccccn5)C5CC5)cc34)cc1)C2` (stereo partly drawn) [Example A353, N-((R)-cyclopropyl(pyridin-2-yl)methyl)-3-(4-(((1R,3R,5S)-8-formyl-8-azabicyclo[3.2.1]octan-3-yl)oxy)phenyl)-1H-indazole-5-carboxamide], the GI50 was less than 100 nM in assay [1] and less than 100 nM in assay [2] (Homo sapiens, PA-1). In addition, at human TTK, the IC50 was less than 100 nM.
As to `O=C(NCC1(N2CCOCC2)CCCC1)c1ccc2[nH]nc(-c3ccc(O[C@@H]4CCC[C@H](O)C4)cc3)c2c1` (relative stereo) [Example A496, rel-3-(4-(((1R,3S)-3-hydroxycyclohexyl)oxy)phenyl)-N-((1-morpholinocyclopentyl)methyl)-1H-indazole-5-carboxamide], the 50% growth inhibitory concentration (GI50) in assay [1] (setting [3]) and in assay [2] (setting [4]) was 100 to 500 nM each time. Further, the IC50 on human TTK was less than 100 nM.
For the compound `O=C(N[C@H](c1ccccn1)C1CCCC1)c1ccc2[nH]nc(-c3ccc(OC4CCN(CCO)CC4)cc3)c2c1` [Example A233, (S)-N-(cyclopentyl(pyridin-2-yl)methyl)-3-(4-((1-(2-hydroxyethyl)piperidin-4-yl)oxy)phenyl)-1H-indazole-5-carboxamide], the GI50 in assay [1] is less than 100 nM; in assay [2] (Homo sapiens, PA-1), less than 100 nM. For the same compound, the IC50 on human TTK is less than 100 nM.
With `O=C(Nc1ccc2[nH]nc(-c3ccc(NC4CCC(O)CC4)cc3)c2c1)C(c1ccsc1)N1CCCC1` (single isomer, unassigned) [Example A105, rel-N-(3-(4-(((1r,4r)-4-hydroxycyclohexyl)amino)phenyl)-1H-indazol-5-yl)-2-(pyrrolidin-1-yl)-2-(thiophen-3-yl)acetamide], the GI50 in assay [1] (setting [3]) and in assay [2] (setting [4]) was less than 100 nM each time. Further, the IC50 at human TTK is less than 100 nM.
On to `CC(C)C(NC(=O)c1ccc2[nH]nc(-c3ccc(OC4CC5COCC(C4)N5C)cc3)c2c1)c1ccccc1Cl` [Example A393, N-(1-(2-chlorophenyl)-2-mcthylpropyl)-3-(4-(((1R,5S,7s)-9-methy]-3-oxa-9-azabicyclo[3.3.1]nonan-7-yl)oxy)phenyl)-1H-indazole-5-carboxamide], for which the GI50 in assay [1] was less than 100 nM; in assay [2] (Homo sapiens, PA-1), less than 100 nM. Also, the IC50 at human TTK is less than 100 nM.
As to `O=C(CC1(c2ccccc2)COC1)Nc1ccc2[nH]nc(-c3ccc(OC4CCN(C5COC5)CC4)cc3)c2c1` [Example A462, N-(3-(4-((1-(oxetan-3-yl)piperidin-4-yl)oxy)phenyl)-1H-indazol-5-yl)-2-(3-phenyloxetan-3-yl)acetamide], the GI50 in assay [1] was more than 500 nM; in assay [2] (Homo sapiens, PA-1) it was more than 500 nM. The IC50 on human TTK lay in the range of 100 to 500 nM.
In the case of `CN1CCC(Oc2ccc(-c3n[nH]c4ccc(C(=O)NCC5(c6ccccc6)CC5)cc34)cc2)CC1` [Example A471, 3-(4-((1-methylpiperidin-4-yl)oxy)phenyl)-N-((1-phenylcyclopropyl)methyl)-1H-indazole-5-carboxamide], the GI50 in assay [1] (setting [3]) and in assay [2] (setting [4]) was 100 to 500 nM each time. Moreover, at human TTK, the IC50 is less than 100 nM.
In the case of `O=C(NCC1(N2CCOCC2)CCCCC1)c1ccc2[nH]nc(-c3ccc(N4CC5CCC(C4)O5)cc3)c2c1` [Example A483, 3-(4-(8-oxa-3-azabicydo[3.2.1]octan-3-yl)phenyl)-N-((1-morpholinocyclohexyl)methyl)-1H-indazole-5-carboxamide], the GI50 lay in the range of 100 to 500 nM in assay [1] and 100 to 500 nM in assay [2] (Homo sapiens, PA-1). Also, the IC50 at human TTK was less than 100 nM.
`CN1CCC(Oc2ccc(-c3n[nH]c4ccc(C(=O)NCC5(c6ccccn6)CCCCC5)cc34)cc2)CC1` [Example A474, 3-(4-((1-methylpiperidin-4-yl)oxy)phenyl)-N-((1-(pyridin-2-yl)cyclohexyl)methyl)-1H-indazole-5-carboxamide]: the GI50 in assay [1] (setting [3]) and in assay [2] (setting [4]) was 100 to 500 nM each time. Moreover, at human TTK, the IC50 was less than 100 nM.
With `O=C(NC(c1ccccn1)C1CC1)c1ccc2[nH]nc(-c3ccc(N4CCN(CCO)CC4)cc3)c2c1` (stereo not drawn) [Example A384, N-(cyclopropyl(pyridin-2-yl)methyl)-3-(4-(4-(2-hydroxyethyl)piperazin-1-yl)phenyl)-1H-indazole-5-carboxamide], the GI50 in assay [1] lay in the range of 100 to 500 nM; in assay [2] (Homo sapiens, PA-1), 100 to 500 nM. Moreover, on human TTK, the IC50 is less than 100 nM.
As for `O=C(NCC1(c2cccs2)CCOCC1)c1ccc2[nH]nc(-c3ccc(N4CCOCC4)cc3)c2c1` [Example A436, 3-(4-morpholinophenyl)-N-((4-(thiophen-2-yl)tetrahydro-2H-pyran-4-yl)methyl)-1H-indazole-5-carboxamide], the GI50 in assay [1] fell in the range of 100 to 500 nM; in assay [2] (Homo sapiens, PA-1), 100 to 500 nM. Also, the IC50 at human TTK was less than 100 nM.
With `CC(C)[C@H](NC(=O)c1ccc2[nH]nc(-c3ccc(OC4CCN(CCO)CC4)cc3)c2c1)c1ccccc1Cl` [Example A232, (S)-N-(1-(2-chlorophenyl)-2-methylpropyl)-3-(4-((1-(2-hydroxyethyl)piperidin-4-yl)oxy)phenyl)-1H-indazole-5-carboxamide], the GI50 is less than 100 nM in assay [1] and less than 100 nM in assay [2] (Homo sapiens, PA-1). Moreover, the IC50 on human TTK is less than 100 nM.
Take `CN1CCC(Oc2ccc(-c3n[nH]c4ccc(C(=O)NCC5(c6ccsc6)CCCCC5)cc34)cc2)CC1` [Example A472, 3-(4-((1-methylpiperidin-4-yl)oxy)phenyl)-N-((1-(thiophen-3-yl)cyclohexyl)methyl)-1H-indazole-5-carboxamide]: the GI50 in assay [1] (setting [3]) and in assay [2] (setting [4]) was 100 to 500 nM throughout. For the same compound, at human TTK, the IC50 is less than 100 nM.
On to `O=C(NC(c1ccccc1)C1CC1)c1ccc2[nH]nc(-c3ccc(OCCn4ccnc4)cc3)c2c1` (stereo not drawn) [Example A165, 3-(4-(2-(1H-imidazol-1-yl)ethoxy)phenyl)-N-(cyclopropyl(phenyl)methyl)-1H-indazole-5-carboxamide], for which the GI50 in assay [1] (setting [3]) and in assay [2] (setting [4]) was more than 500 nM in each case. The IC50 on human TTK is less than 100 nM.
For the compound `CC(C)C(NC(=O)c1ccc2[nH]nc(-c3ccc(OC4CCN(C5COC5)CC4)cc3)c2c1)c1ccccn1` (stereo not drawn) [Example A327, N-(2-methyl-1-(pyridin-2-yl)propyl)-3-(4-((1-(oxetan-3-yl)piperidin-4-yl)oxy)phenyl)-1H-indazole-5-carboxamide], the GI50 in assay [1] was less than 100 nM; in assay [2] (Homo sapiens, PA-1) it was less than 100 nM. For the same compound, the IC50 at human TTK was less than 100 nM.
As for `CC(C)CC(NC(=O)c1ccc2[nH]nc(-c3ccc(OC4CCN(C5COC5)CC4)cc3)c2c1)c1ccccc1` (stereo not drawn) [Example A290, N-(3-methyl-1-phenylbutyl)-3-(4-((1-(oxetan-3-yl)piperidin-4-yl)oxy)phenyl)-1H-indazole-5-carboxamide], the GI50 lay within 100 to 500 nM in assay [1] and 100 to 500 nM in assay [2] (Homo sapiens, PA-1). Also, the IC50 at human TTK was less than 100 nM.
Regarding `CN1CCC(Oc2ccc(-c3n[nH]c4ccc(C(=O)NCC5(N6CCOCC6)CCCC5)cc34)cc2)CC1` [Example A428, 3-(4-((1-methylpiperidin-4-yl)oxy)phenyl)-N-((1-morpholinocyclopentyl)methyl)-1H-indazole-5-carboxamide], the GI50 in assay [1] (setting [3]) and in assay [2] (setting [4]) was 100 to 500 nM throughout. Moreover, the IC50 at human TTK was less than 100 nM.
